Data taken from PMC4835244 (Stem Cells Translational Medicine, 2016).
Where a name gives a salt, the structure may show the parent alone. Read-outs that look alike come from different tables or passages of the source.

How the values were obtained:
[1] = test system: ARE/Nrf2 pathway (CellSensor ARE-bla HepG2 cell line); assay: ARE-bla β-lactamase reporter gene assay; type: cell-based; conditions: HepG2 cells
[2] = test system: activator protein 1 (AP1); conditions: assays previously performed; cited from earlier work
heat shock element (HSE) = conditions: ref PubChem AID 743228; cited from earlier work
p53 = conditions: ref PubChem AID 720552; cited from earlier work
in vitro = conditions: human

Compound	Cytotoxicity to HepG2 cells (CTG) (HepG2 cells; human, 18 h)	Activation of ARE-β-lactamase expression [1]	Shape of activity in the ARE-bla assay [1]	further results
c1ccc2c(c1)OCC(C1=NCCN1)O2 (centres unmarked) [Idazoxan hydrochloride]	not toxic to HepG2 cells at the concentrations tested	directly activated ARE-β-lactamase expression	simple increase in ARE activation	Activity in β-lactamase reporter gene assay for AP1 [2]: not active in any of these assays; Activity in β-lactamase reporter gene assay for HSE (heat shock element (HSE)): not active in any of these assays; Activity in β-lactamase reporter gene assay for p53 (p53): not active in any of these assays
OC[C@H]1O[C@H]([S-])[C@H](O)[C@@H](O)[C@@H]1O.[Au+] [Aurothioglucose]	–	directly activated ARE-β-lactamase expression	bell shaped	Cytotoxicity to HepG2 cells (CTG) (HepG2 cells): toxic at the highest concentrations; Activity in β-lactamase reporter gene assay for p53 (p53): not active
COc1cccc2c1C(=O)c1c(O)c3c(c(O)c1C2=O)C[C@@](O)(C(=O)CO)C[C@@H]3O[C@H]1C[C@H](N2CCO[C@H](OC)C2)[C@H](O)[C@H](C)O1 [Nemorubicin]	cytotoxic to HepG2 cells	–	–	–
COc1c(C)c2c(c(O)c1C/C=C(\C)CCC(=O)O)C(=O)OC2 [Mycophenolic acid]	–	active in only one repetition	–	–
C/C=C(/C)C(=O)O[C@H]1C(C)=C2[C@H]([C@@H]1OC(=O)CCCCCCC)[C@@](C)(OC(C)=O)C[C@H](OC(=O)CCC)[C@@]1(O)[C@H]2OC(=O)[C@@]1(C)O [Thapsigargin]	cytotoxic to HepG2 cells	–	–	–
Cc1ccccc1/C=C/C1=NCCN1 [Metrazoline oxalate]	not toxic to HepG2 cells at the concentrations tested	directly activated ARE-β-lactamase expression	simple increase in ARE activation	–
O=C1c2ccccc2C(=O)c2c(NCCc3ccc(O)cc3)ccc(NCCc3ccc(O)cc3)c21 [JFD00244]	–	active in only one repetition	–	–
CC(C)(C)c1ccc(C(O)CCCN2CCC(C(O)(c3ccccc3)c3ccccc3)CC2)cc1 (centres unmarked) [Terfenadine]	–	–	–	IC50 at 24 h (in vitro): 6.7 µM
O=C1OC(=O)[C@H]2[C@@H]1[C@@H]1CC[C@H]2O1 [Norcantharidin]	–	active in only one repetition	–	–
CC(C)(C)c1ccc(C(=O)CCCN2CCC(OC(c3ccccc3)c3ccccc3)CC2)cc1 [Ebastine]	cytotoxic to HepG2 cells	–	–	–
